# Data reported in patent US9944645B2, “Imidazotriazines and imidazopyrimidines as kinase inhibitors” (Incyte Holdings Corporation, priority 2006, dated 2018).
# Target: c-Met kinase (h-Met; histidine-tagged c-Met catalytic domain fusion protein) (Homo sapiens (Human), UniProt P08581)
# Experiment: In Vitro c-Met Kinase Enzyme Assays
# Type: biochemical
# Conditions: phosphorylation of poly Glu-Tyr, 5 μM ATP, 25 minutes at 30° C.
# Outline: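 His-tagged c-Met catalytic domain reacted 25 min at 30° C, within the linear initial-rate range. Phosphotyrosine detected by ELISA with peroxidase-labeled anti-phospho-tyrosine antibody and TMB, OD read at 450 nm (540 nm correction); IC50 from curve fit.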
# Sequence of c-Met kinase (h-Met; histidine-tagged c-Met catalytic domain fusion protein) (P08581 1078-1345): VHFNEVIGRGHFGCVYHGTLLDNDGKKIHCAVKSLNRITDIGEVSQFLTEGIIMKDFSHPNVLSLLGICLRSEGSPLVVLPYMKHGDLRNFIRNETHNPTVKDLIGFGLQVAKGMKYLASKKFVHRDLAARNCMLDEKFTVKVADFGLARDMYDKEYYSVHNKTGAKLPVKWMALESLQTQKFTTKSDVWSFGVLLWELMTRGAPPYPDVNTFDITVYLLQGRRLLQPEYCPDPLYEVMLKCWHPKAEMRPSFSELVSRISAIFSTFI
row,SMILES,IC50 [nM]
1,"CC(NC(=O)C1(c2ccc(-c3cnc4ncc(C5(c6ccc7ncccc7c6)CC5)n4c3)cc2)CC1)c1ccccn1 (stereo not drawn) [Example 188, N-(1-Pyridin-2-ylethyl)-1-{4-[3-(1-quinolin-6-ylcyclopropyl)imidazo[1,2-a]pyrimidin-6-yl]phenyl}cyclopropanecarboxamide]",< 500
2,"CC(COc1ccccn1)NC(=O)C1(c2ccc(-c3cnc4ncc(C5(c6ccc7ncccc7c6)CC5)n4c3)cc2)CC1 (stereo not drawn) [Example 189, N-[1-Methyl-2-(pyridin-2-yloxy)ethyl]-1-{4-[3-(1-quinolin-6-ylcyclopropyl)imidazo[1,2-a]pyrimidin-6-yl]phenyl}cyclopropanecarboxamide]",< 500
3,"CNC(=O)C(O)c1ccc(-c2cnc3ncc(C4(c5ccc6ncccc6c5)CC4)n3c2)cc1F (stereo not drawn) [Example 190, 2-{2-Fluoro-4-[3-(1-quinolin-6-ylcyclopropyl)imidazo[1,2-a]pyrimidin-6-yl]phenyl}-2-hydroxy-N-methylacetamide]",< 500
4,"CN(C)C(=O)C(O)c1ccc(-c2cnc3ncc(C4(c5ccc6ncccc6c5)CC4)n3c2)cc1F (stereo not drawn) [Example 191, 2-{2-fluoro-4-[3-(1-quinolin-6-ylcyclopropyl)imidazo[1,2-a]pyrimidin-6-yl]phenyl}-2-hydroxy-N,N-dimethylacetamide]",< 500
5,"CCNC(=O)Nc1cccc(Cc2cnc3ncc(-c4ccc(Br)c(F)c4)nn23)c1 [Example 192, N-(3-[2-(4-Bromo-3-fluorophenyl)imidazo[1,2-b][1,2,4]triazin-7-yl]methylphenyl)-N′-ethylurea]",< 500
6,"Nc1nc2ncc(C3(c4ccc5ncccc5c4)CC3)n2nc1-c1cccc(Cl)c1Cl [Example 193, 2-(2,3-Dichlorophenyl)-7-(1-quinolin-6-ylcyclopropyl)imidazo[1,2-b][1,2,4]triazin-3-amine]",< 500
7,"CNC(=O)c1ccc(-c2cnc3ncc(C4(c5ccc6ncccc6c5)CC4)n3c2)c(F)c1F [Example 194, 2,3-Difluoro-N-methyl-4-[3-(1-quinolin-6-ylcyclopropyl)imidazo[1,2-a]pyrimidin-6-yl]benzamide]",< 500
8,"CNC(=O)c1c(F)cc(-c2cnc3ncc(C4(c5ccc6ncccc6c5)CC4)n3c2)cc1F [Example 195, 6-Difluoro-N-methyl-4-[3-(1-quinolin-6-ylcyclopropyl)imidazo[1,2-a]pyrimidin-6-yl]benzamide]",< 500
9,"CNS(=O)(=O)c1ccc(-c2cnc3ncc(C4(c5ccc6ncccc6c5)CC4)n3c2)cc1F [Example 196, 2-Fluoro-N-methyl-4-[3-(1-quinolin-6-ylcyclopropyl)imidazo[1,2-a]pyrimidin-6-yl]benzenesulfonamide]",< 500
10,"CN(C)C(=O)Cn1ccc(-c2cnc3ncc(C4(c5ccc6ncccc6c5)CC4)n3c2)n1 [Example 197, N,N-Dimethyl-2-{3-[3-(1-quinolin-6-ylcyclopropyl)imidazo[1,2-a]pyrimidin-6-yl]-1H-pyrazol-1-yl}acetamide]",< 500
11,"CC(C)(C)[C@H](NC(=O)c1ccc(-c2cnc3ncc(C4(c5ccc6ncccc6c5)CC4)n3c2)cc1F)C(=O)N1CCC1 [Example 198, N-[(1S)-1-(Azetidin-1-ylcarbonyl)-2,2-dimethylpropyl]-2-fluoro-4-[3-(1-quinolin-6-ylcyclopropyl)imidazo[1,2-a]pyrimidin-6-yl]benzamide]",< 500
12,"CC(NC(=O)c1ccc(-c2cnc3ncc(C4(c5ccc6ncccc6c5)CC4)n3c2)cc1F)C(=O)N(C)C (stereo not drawn) [Example 199, N-[2-(Dimethylamino)-1-methyl-2-oxoethyl]-2-fluoro-4-[3-(1-quinolin-6-ylcyclopropyl)imidazo[1,2-a]pyrimidin-6-yl]benzamide]",< 500
13,"CC(NC(=O)c1ccc(-c2cnc3ncc(C4(c5ccc6ncccc6c5)CC4)n3c2)cc1F)C(=O)N1CCC1 (stereo not drawn) [Example 200, N-(2-Azetidin-1-yl-1-methyl-2-oxoethyl)-2-fluoro-4-[3-(1-quinolin-6-ylcyclopropyl)imidazo[1,2-a]pyrimidin-6-yl]benzamide]",< 500
14,"O=C(NCC1(O)CC1)c1ccc(-c2cnc3ncc(Cc4ccc5ncccc5c4)n3n2)cc1F [Example 202, 2-Fluoro-N-[(1-hydroxycyclopropyl)methyl]-4-[7-(quinolin-6-ylmethyl)imidazo[1,2-b][1,2,4]triazin-2-yl]benzamide]",< 500

# Next, values leading:
row,IC50 [nM],SMILES
1,< 500,"O=C(NCC1CCCO1)c1ccc(-c2cnc3ncc(C4(c5ccc6ncccc6c5)CC4)n3c2)cc1F (stereo not drawn) [Example 169, 2-Fluoro-4-[3-(1-quinolin-6-ylcyclopropyl)imidazo[1,2-a]pyrimidin-6-yl]-N-(tetrahydrofuran-2-ylmethyl)benzamide]"
2,< 500,"O=C(NC1CC1)c1ccc(-c2cnc3ncc(C4(c5ccc6ncccc6c5)CC4)n3c2)cc1F [Example 170, N-Cyclopropyl-2-fluoro-4-[3-(1-quinolin-6-ylcyclopropyl)imidazo[1,2-a]pyrimidin-6-yl]benzamide]"
3,< 500,"COC[C@@H](NC(=O)c1ccc(-c2cnc3ncc(C4(c5ccc6ncccc6c5)CC4)n3c2)cc1F)C(C)C [Example 171, 2-Fluoro-N-[(1S)-1-(methoxymethyl)-2-methylpropyl]-4-[3-(1-quinolin-6-ylcyclopropyl)imidazo[1,2-a]pyrimidin-6-yl]benzamide]"
4,< 500,"NC(=O)c1ccc(-c2cnc3ncc(C4(c5ccc6ncccc6c5)CC4)n3c2)cc1F [Example 172, 2-Fluoro-4-[3-(1-quinolin-6-ylcyclopropyl)imidazo[1,2-a]pyrimidin-6-yl]benzamide]"
5,< 500,"CN(CCN(C)c1ccccn1)C(=O)c1ccc(-c2cnc3ncc(C4(c5ccc6ncccc6c5)CC4)n3c2)cc1F [Example 173, 2-Fluoro-N-methyl-N-2-[methyl(pyridin-2-yl)amino]ethyl-4-[3-(1-quinolin-6-ylcyclopropyl)imidazo[1,2-a]pyrimidin-6-yl]benzamide]"
6,< 500,"CNC(=O)c1ccc(-c2cnc3ncc(C4(c5ccc6ncccc6c5)CC4)n3c2)cc1Cl [Example 174, 2-Chloro-N-methyl-4-[3-(1-quinolin-6-ylcyclopropyl)imidazo[1,2-a]pyrimidin-6-yl]benzamide]"
7,< 500,"O=C(NC1CC1)c1ccc(-c2cnc3ncc(C4(c5ccc6ncccc6c5)CC4)n3c2)cc1Cl [Example 175, 2-Chloro-N-cyclopropyl-4-[3-(1-quinolin-6-ylcyclopropyl)imidazo[1,2-a]pyrimidin-6-yl]benzamide]"
8,< 500,"O=C(NC1CCOC1)c1ccc(-c2cnc3ncc(C4(c5ccc6ncccc6c5)CC4)n3c2)cc1Cl (stereo not drawn) [Example 176, 2-Chloro-4-[3-(1-quinolin-6-ylcyclopropyl)imidazo[1,2-a]pyrimidin-6-yl]-N-(tetrahydrofuran-3-yl)benzamide]"
9,< 500,"CC(NC(=O)c1ccc(-c2cnc3ncc(C4(c5ccc6ncccc6c5)CC4)n3c2)cc1Cl)c1ccccn1 (stereo not drawn) [Example 177, 2-Chloro-N-(1-pyridin-2-ylethyl)-4-[3-(1-quinolin-6-ylcyclopropyl)imidazo[1,2-a]pyrimidin-6-yl]benzamide]"
10,< 500,"O=C(c1ccc(-c2cnc3ncc(C4(c5ccc6ncccc6c5)CC4)n3c2)cc1Cl)N1CCC1 [Example 178, 6-(1-{6-[4-(Azetidin-1-ylcarbonyl)-3-chlorophenyl]imidazo[1,2-a]pyrimidin-3-yl}cyclopropyl)quinoline]"
11,< 500,"O=C(NC1CCN(c2ccccn2)C1)c1ccc(-c2cnc3ncc(C4(c5ccc6ncccc6c5)CC4)n3c2)cc1Cl (stereo not drawn) [Example 179, 2-Chloro-N-(1-pyridin-2-ylpyrrolidin-3-yl)-4-[3-(1-quinolin-6-ylcyclopropyl)imidazo[1,2-a]pyrimidin-6-yl]benzamide]"
12,< 500,"CC(COc1ccccn1)NC(=O)c1ccc(-c2cnc3ncc(C4(c5ccc6ncccc6c5)CC4)n3c2)cc1Cl (stereo not drawn) [Example 180, 2-Chloro-N-[1-methyl-2-(pyridin-2-yloxy)ethyl]-4-[3-(1-quinolin-6-ylcyclopropyl)imidazo[1,2-a]pyrimidin-6-yl]benzamide]"
13,< 500,"CC(C)[C@H](NC(=O)c1ccc(-c2cnc3ncc(C4(c5ccc6ncccc6c5)CC4)n3c2)cc1Cl)C(=O)N(C)C [Example 181, 2-Chloro-N-(1S)-1-[(dimethylamino)carbonyl]-2-methylpropyl-4-[3-(1-quinolin-6-ylcyclopropyl)imidazo[1,2-a]pyrimidin-6-yl]benzamide]"
14,< 500,"O=C1c2ccc(-c3cnc4ncc(C5(c6ccc7ncccc7c6)CC5)n4c3)cc2CN1C1CC1 [Example 182, 2-Cyclopropyl-5-[3-(1-quinolin-6-ylcyclopropyl)imidazo[1,2-a]pyrimidin-6-yl]isoindolin-1-one]"
15,< 500,"CCN1Cc2cc(-c3cnc4ncc(C5(c6ccc7ncccc7c6)CC5)n4c3)ccc2C1=O [Example 183, 2-Ethyl-5-[3-(1-quinolin-6-ylcyclopropyl)imidazo[1,2-a]pyrimidin-6-yl]isoindolin-1-one]"
16,< 500,"COCC(C)N1Cc2cc(-c3cnc4ncc(C5(c6ccc7ncccc7c6)CC5)n4c3)ccc2C1=O (stereo not drawn) [Example 184, 2-(2-Methoxy-1-methylethyl)-5-[3-(1-quinolin-6-ylcyclopropyl)imidazo[1,2-a]pyrimidin-6-yl]isoindolin-1-one]"
17,< 500,"O=C1c2ccc(-c3cnc4ncc(C5(c6ccc7ncccc7c6)CC5)n4c3)cc2CN1Cc1ccccn1 [Example 185, 2-(Pyridin-2-ylmethyl)-5-[3-(1-quinolin-6-ylcyclopropyl)imidazo[1,2-a]pyrimidin-6-yl]isoindolin-1-one]"
18,< 500,"CN1Cc2cc(-c3cnc4ncc(C5(c6ccc7ncccc7c6)CC5)n4c3)ccc2C1=O [Example 186, 2-Methyl-5-[3-(1-quinolin-6-ylcyclopropyl)imidazo[1,2-a]pyrimidin-6-yl]isoindolin-1-one]"
19,< 500,"CCNC(=O)C1(c2ccc(-c3cnc4ncc(C5(c6ccc7ncccc7c6)CC5)n4c3)cc2)CC1 [Example 187, N-Ethyl-1-{4-[3-(1-quinolin-6-ylcyclopropyl)imidazo[1,2-a]pyrimidin-6-yl]phenyl}cyclopropanecarboxamide]"
